These are literature values, as cited in US11857677B2, “Ready to use injectable formulations of melphalan and processes for preparation thereof” (RK Pharma Solutions LLC, priority 2019, dated 2024).

Structures are written as SMILES.

On to `N[C@@H](Cc1ccc(N(CCCl)CCCl)cc1)C(=O)O` [Melphalan, 4-[bis(2-chloroethyl)amino]-L-phenylalanine], for which the Solubility in water entry is listed as “practically insoluble”.
